The assay addresses T1, HCV-NS5b (Hepatitis C virus genotype 1b, UniProt Q9WMX2).
T1 construct: (His)6 (C); made in house; host or cells: XL-1 cells (E. coli), IPTG-inducible plasmid
Briefly: HCV-NS5b enzyme assay using homopolymer substrate. The assay is classed as biochemical. An excerpt: The coding sequence of NS5b protein was cloned by PCR from pFKI389luc/NS3-3′/ET as described by Lohmann, V., et al. (1999) Science 285, 110-113 using the primers shown on page 266 of WO 2005/012288
The cloned fragment is missing the C terminus 21 amino acid residues. The cloned fragment was inserted into an IPTG-inducible (isopropyl-β-D-thiogalactopyranoside) expression plasmid that provides an epitope tag (His)6 at the carboxy terminus of the protein.
The recombinant enzyme was expressed in XL-1 cells and after induction of expression, the protein was purified using affinity chromatography on a nickel-NTA (nitrilotriacetic acid) column. Storage condition was 10 mM Tris-HCl pH 7.5, 50 mM NaCl, 0.1 mM EDTA (ethylenediaminetetraacetic acid), 1 mM DTT (dithiothreotol), 20% glycerol at −20° C.
The polymerase activity was assayed by measuring incorporation of radiolabeled UTP into a RNA product using a biotinylated, homopolymeric template. The template was formed by annealing adenosine homopolymer to uridine 20-mer capped with a 5′-biotin group (biotin-U^20) in the ratio of 1:4. Typically, the assay mixture (50 μL) contained 25 mM Tris-HCl (pH 7.5), 40 mM KCl, 0.3 mM MgCl2, 0.05 mM EDTA, 0.2 unit/μL Superase RNAse Inhibitor, 5 mM DTT, 30 μM UTP (Uridine triphosphate), including [^3H]-UTP (uridine triphosphate) at 0.4 μCi/μL with final concentration of 1 μM, and 50 nM of homopolymeric template. Test compounds were initially dissolved in 100% DMSO and further diluted in aqueous buffer containing 5% DMSO. Typically, compounds were tested at concentrations between 2 nM and 50 μM. Reactions were started with addition of enzyme and allowed to continue at 30° C. for 90 minutes. Reactions were quenched with 8 μL of 100 mM EDTA and reaction mixtures (30 μL) were transferred to streptavidin-coated scintillation proximity microtiter plates (FlashPlates) and incubated at room temperature overnight. Incorporation of radioactivity was determined by scintillation counting.
Inhibitor IC50 values were determined by adding test compound as ten point, two-fold serial dilutions in 100% DMSO with a final reaction concentration of 5%. IC50 was calculated by plotting the % inhibition against compound concentration and fitting the data to a constrained four parameter sigmoidal curve, equivalent to the “four parameter logistic equation”:
Where Bottom is the minimum Y value, Top is the maximum Y value, and Hillslope is the slope of the linear portion of the semi-log curve. Top and Bottom were constrained to values of 0% and 100%, respectively. These analyses were performed using Graphpad Prism v.4.0 (Graphpad Software, Inc.) in conjunction with DS Accord for EXCEL 6.0 (Accelrys, Microsoft Corp.).
The table below lists the IC50 values of compounds determined using the homopolymer substrates.

Setting [1] is: homopolymer substrate, [3H]-UTP incorporation, 30° C., 90 minutes, read-out: IC50.

Like-named read-outs stand apart in the source and are kept apart here.

In patent US20090197856A1, “ANTIVIRAL COMPOUNDS” (Genelabs Technologies, Inc., priority 2007, published 2009) one finds IC50 data, which are given here for 53 molecules.

The IC50 is the concentration at which inhibition is half-maximal.

In the case of `O=C(O)c1ccc2c(C3CCCCC3)c3n(c2c1)CCCn1cc(-c2nnn[nH]2)c2cccc-3c21` [Compound 445], the IC50 under setting [1] amounted to 0.103 µM.
Still for that read-out and setting: for `CC1CCC(C)N1Cc1cn2c3c(cccc13)-c1c(C3CCCCC3)c3ccc(C(=O)O)cc3n1CCC2` (centres unmarked) [Compound 382] the value was 0.141 µM; for `CC1CCCN(Cc2cn3c4c(cccc24)-c2c(C4CCCCC4)c4ccc(C(=O)O)cc4n2CCC3)C1` (centres unmarked) [Compound 130], 0.111 µM; for `O=C(O)c1ccc2c(C3CCCCC3)c3n(c2c1)CCCn1cc(CNC2CC2)c2cccc-3c21` [Compound 131], 0.208 µM.
As to `O=C(O)c1ccc2c(C3CCCCC3)c3n(c2c1)CCCn1cc(CN2CCCCC2)c2ccnc-3c21` [Compound 464], the IC50 under setting [1] was determined as 0.96 µM.
Still for that read-out and setting: with `O=C(O)c1ccc2c(C3CCCCC3)c3n(c2c1)CCCn1cc(CN(CCO)CCO)c2cccc-3c21` [Compound 363] the figure was 0.124 µM; with `COC1CCN(Cc2cn3c4c(cccc24)-c2c(C4CCCCC4)c4ccc(C(=O)O)cc4n2CCC3)CC1` [Compound 115], 0.087 µM; with `CN(C)C(=O)c1cc2cccc3c2n1CCCn1c-3c(C2CCCCC2)c2ccc(C(=O)O)cc21` [Compound 405], 0.139 µM.
The same measure, in the same setting: with `CCN(Cc1cn2c3c(cccc13)-c1c(C3CCCCC3)c3ccc(C(=O)O)cc3n1CCC2)C(C)C` [Compound 361] the figure was 0.176 µM.
Regarding `COCCN(CCOC)Cc1cn2c3c(cccc13)-c1c(C3CCCCC3)c3ccc(C(=O)O)cc3n1CCC2` [Compound 362], under setting [1], the IC50 was determined as 0.337 µM.
In turn, `CN1CCN(C(=O)C(=O)c2cn3c4c(cccc24)-c2c(C4CCCCC4)c4ccc(C(=O)O)cc4n2CCC3)CC1` [Compound 123] returned an IC50 of 0.155 µM.
Consider `O=C(O)c1ccc2c(C3CCCCC3)c3n(c2c1)CCN1CCC(NC2CCOCC2)c2cccc-3c21` (centres unmarked) [Compound 282], for which the half-maximal inhibitory concentration (IC50) under setting [1] was 0.059 µM.
On the same count and under the same terms, with `CCN(CC)C1CCN(C(=O)c2cc3cccc4c3n2CCCn2c-4c(C3CCCCC3)c3ccc(C(=O)O)cc32)CC1` [Compound 408] the figure was 0.142 µM; with `O=C(O)c1ccc2c(C3CCCCC3)c3n(c2c1)CCCn1cc(CNCc2cccnc2)c2cccc-3c21` [Compound 386], 0.196 µM.
Take `NCc1cn2c3c(cccc13)-c1c(C3CCCCC3)c3ccc(C(=O)O)cc3n1CCC2` [Compound 395]: the IC50 under setting [1] came out at 0.14 µM.
For the molecule `O=C(O)c1ccc2c(C3CCCCC3)c3n(c2c1)CCCn1cc(CCCN2CCCC2)c2cccc-3c21` [Compound 435], the IC50 under setting [1] turned out to be 0.171 µM.
As for `CCN(C)Cc1cn2c3c(ccc(Cl)c13)-c1c(C3CCCCC3)c3ccc(C(=O)O)cc3n1CCC2` [Compound 459], under setting [1], the IC50 amounted to 0.16 µM.
As for `O=C(O)c1ccc2c(C3CCCCC3)c3n(c2c1)CCCn1cc(CN2CCCCC2)c2cccc-3c21` [Compound 119], the IC50 under setting [1] came out at 0.114 µM.
The same measure, in the same setting: with `O=C(O)c1ccc2c(C3CCCCC3)c3n(c2c1)CC(CO)Cn1ccc2cccc-3c21` (racemic) [Compound 377] the figure was 0.28 µM; with `O=C(O)c1ccc2c(C3CCCCC3)c3n(c2c1)CCCn1cc(CNC2CCOCC2)c2cccc-3c21` [Compound 360], 0.149 µM; with `O=C(O)c1ccc2c(C3CCCCC3)c3n(c2c1)CCCn1cc(CN2CCC(O)CC2)c2cccc-3c21` [Compound 385], 0.133 µM.
On the same count and under the same terms, for `O=C(O)c1ccc2c(C3CCCCC3)c3n(c2c1)CCCn1cc(CCCN2CCCCC2)c2cccc-3c21` [Compound 434] the value was 0.172 µM.
As for `O=C(O)c1ccc2c(C3CCCCC3)c3n(c2c1)CCCn1cc(CNC2CCCC2)c2cccc-3c21` [Compound 371], under setting [1], the IC50 turned out to be 0.109 µM.
In the case of `CCN(C)Cc1cn2c3c(cccc13)-c1c(C3CCCCC3)c3ccc(C(=O)O)cc3n1CCC2` [Compound 337], the IC50 under setting [1] stood at 1.29 µM.
`CC(C)N(C(=O)c1cn2c3c(cccc13)-c1c(C3CCCCC3)c3ccc(C(=O)O)cc3n1CCC2)C(C)C` [Compound 441] gave an IC50 of 0.271 µM.
Consider `CC(C)NCc1cn2c3c(cccc13)-c1c(C3CCCCC3)c3ccc(C(=O)O)cc3n1CCC2` [Compound 110], for which the IC50 under setting [1] came out at 0.096 µM.
On the same count and under the same terms, with `NCc1cc2cccc3c2n1CCCn1c-3c(C2CCCCC2)c2ccc(C(=O)O)cc21` [Compound 418] the figure was 0.144 µM; with `CCC(C)NCc1cn2c3c(cccc13)-c1c(C3CCCCC3)c3ccc(C(=O)O)cc3n1CCC2` (centres unmarked) [Compound 379], 0.117 µM.
Consider `O=C(O)c1ccc2c(C3CCCCC3)c3n(c2c1)CCCn1c(C(=O)O)cc2cccc-3c21` [Compound 407], for which, under setting [1], the IC50 turned out to be 0.253 µM.
As to `CC(C)NC1CCN2CCn3c(c(C4CCCCC4)c4ccc(C(=O)O)cc43)-c3cccc1c32` (centres unmarked) [Compound 276], the IC50 under setting [1] was 0.065 µM.
The same measure, in the same setting: with `CN1CCN(Cc2cn3c4c(cccc24)-c2c(C4CCCCC4)c4ccc(C(=O)O)cc4n2CCC3)CC1` [Compound 125] the figure was 0.068 µM.
Molecule `CCN(CC)CCC(=O)c1cn2c3c(cccc13)-c1c(C3CCCCC3)c3ccc(C(=O)O)cc3n1CCC2` [Compound 429] gave an IC50 of 0.099 µM.
For the molecule `CC(=O)N1CCN(Cc2cn3c4c(cccc24)-c2c(C4CCCCC4)c4ccc(C(=O)O)cc4n2CCC3)CC1` [Compound 365], the IC50 under setting [1] came to 0.088 µM.
Consider `COCCNC(=O)c1cn2c3c(cccc13)-c1c(C3CCCCC3)c3ccc(C(=O)O)cc3n1CCC2` [Compound 442], for which the IC50 was found to be 0.123 µM.
Consider `CN1CCN(Cc2cn3c4c(ccc(Cl)c24)-c2c(C4CCCCC4)c4ccc(C(=O)O)cc4n2CCC3)CC1` [Compound 458], for which the IC50 under setting [1] stood at 0.196 µM.
Same read-out and setting: for `O=C(O)c1ccc2c(C3CCCCC3)c3n(c2c1)CCCn1cc(CN2CCCCC2)c2cc(F)cc-3c21` [Compound 467] the value was 0.095 µM; for `CN(C)S(=O)(=O)NC(=O)c1ccc2c(C3CCCCC3)c3n(c2c1)CCCn1cc(CN2CCCCC2)c2cccc-3c21` [Compound 375], 0.177 µM; for `O=C(O)c1ccc2c(C3CCCCC3)c3n(c2c1)CCCn1cc(/C(Cl)=C/CN2CCCCC2)c2cccc-3c21` [Compound 431], 0.201 µM.
On the same count and under the same terms, with `CN(C)C(=O)CNCc1cn2c3c(cccc13)-c1c(C3CCCCC3)c3ccc(C(=O)O)cc3n1CCC2` [Compound 369] the figure was 0.171 µM.
As to `N#Cc1cn2c3c(cccc13)-c1c(C3CCCCC3)c3ccc(C(=O)O)cc3n1CCC2` [Compound 444], the IC50 under setting [1] is 0.215 µM.
As to `CCCNCc1cn2c3c(cccc13)-c1c(C3CCCCC3)c3ccc(C(=O)O)cc3n1CCC2` [Compound 366], the IC50 under setting [1] was found to be 0.121 µM.
`CC(C)NC(=O)c1cn2c3c(cccc13)-c1c(C3CCCCC3)c3ccc(C(=O)O)cc3n1CCC2` [Compound 443] displayed an IC50 of 0.121 µM.
For `CSCCNCc1cn2c3c(cccc13)-c1c(C3CCCCC3)c3ccc(C(=O)O)cc3n1CCC2` [Compound 358], the IC50 under setting [1] is 0.153 µM.
On the same count and under the same terms, with `O=C(O)c1ccc2c(C3CCCCC3)c3n(c2c1)CCCn1ccc2cc(F)cc-3c21` [Compound 466] the figure was 0.085 µM; with `CCN(CC)CCc1cn2c3c(cccc13)-c1c(C3CCCCC3)c3ccc(C(=O)O)cc3n1CCC2` [Compound 452], 0.325 µM.
In the case of `O=C(O)c1ccc2c(C3CCCCC3)c3n(c2c1)CCCn1c2c-3cccc2c2c(=O)[nH][nH]c(=O)c21` [Compound 416], under setting [1], the IC50 was 0.146 µM.
Still for that read-out and setting: with `O=C(O)c1ccc2c(C3CCCCC3)c3n(c2c1)CCCn1cc(CNC2CCC2)c2cccc-3c21` [Compound 383] the figure was 0.085 µM; with `O=C(O)c1ccc2c(C3CCCCC3)c3n(c2c1)CCCn1c(C(=O)NCCN2CCCCC2)cc2cccc-3c21` [Compound 404], 0.257 µM; with `O=C(O)c1ccc2c(C3CCCCC3)c3n(c2c1)CCCn1cc(CN2CCCC2)c2cccc-3c21` [Compound 121], 0.049 µM.
Still for that read-out and setting: with `O=C(O)c1ccc2c(C3CCCCC3)c3n(c2c1)CCCn1cc(CN2CCC2)c2cccc-3c21` [Compound 113] the figure was 0.084 µM; with `CS(=O)(=O)NC(=O)c1ccc2c(C3CCCCC3)c3n(c2c1)CCCn1cc(CN2CCCCC2)c2cccc-3c21` [Compound 373], 0.153 µM.
`O=C(O)c1ccc2c(C3CCCCC3)c3n(c2c1)CCCn1cc(C(=O)CN2CCCCC2)c2cccc-3c21` [Compound 454] showed a concentration for half-maximal inhibition (IC50) of 0.348 µM.
In the case of `CC1CN(Cc2cn3c4c(cccc24)-c2c(C4CCCCC4)c4ccc(C(=O)O)cc4n2CCC3)CC(C)O1` (centres unmarked) [Compound 330], the IC50 under setting [1] is 0.113 µM.
